pEC50: −log10 of the molar value. Counter-ions that a name gives are not always drawn.
Biological target: Sphingosine 1-phosphate receptor 3 (Homo sapiens, UniProt Q99500)
Experiment: nonspecific agonism in S1P3 NFAT-BLA cells – counter-screen for 5HT1E agonist project, dose response (AID 730)

Sphingosine 1-phosphate receptor 3, sequence (Q99500 whole entry): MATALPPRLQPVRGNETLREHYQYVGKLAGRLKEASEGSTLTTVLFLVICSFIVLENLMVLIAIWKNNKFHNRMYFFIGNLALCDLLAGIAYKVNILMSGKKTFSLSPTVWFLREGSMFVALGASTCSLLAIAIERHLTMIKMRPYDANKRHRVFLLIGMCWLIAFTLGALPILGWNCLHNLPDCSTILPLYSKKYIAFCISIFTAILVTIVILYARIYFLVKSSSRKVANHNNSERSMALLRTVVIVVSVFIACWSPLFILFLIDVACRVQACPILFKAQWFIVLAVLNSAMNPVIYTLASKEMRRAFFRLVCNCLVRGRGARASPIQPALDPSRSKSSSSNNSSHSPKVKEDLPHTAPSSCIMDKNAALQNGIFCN

| SMILES | pEC50 |
| --- | --- |
| CCCCc1ccc2[nH]cc(CCN)c2c1 | < 4.40 |
| CN1CCN(C(N=O)c2nonc2N)CC1 (stereo not given) | < 4.40 |
| CN(C)CCCn1c(NC(=O)C2CCCCC2)nc2ccccc21 | < 4.40 |
| Cc1c(CN2CCN(c3cccc(C(F)(F)F)c3)CC2)c(=O)n(-c2ccccc2)n1C | < 4.40 |
| C1=C(c2c[nH]c3ccccc23)CCNC1 | < 4.40 |
| Cc1[nH]c2c(Cl)cccc2c1CCN | < 4.40 |
| c1ccc(N2CCN(Cc3cn4cccnc4n3)CC2)cc1 | < 4.40 |
| COc1ccc(CN2CCN(c3ccccc3F)CC2)c(OC)c1 | < 4.40 |
| Cn1cc(C(Cc2ccccc2)N=O)c2ccccc21 (stereo not given) [1-(1-methyl-3-indolyl)-2-phenylethanone oxime] | < 4.40 |
| CCN(CC)c1nc(N2CCOCC2)c(C#N)c2c1CN(C)CC2 [1-(diethylamino)-7-methyl-3-morpholin-4-yl-6,8-dihydro-5H-2,7-naphthyridine-4-carbonitrile] | < 4.40 |
| O=C(NCc1ccccc1)NC1(C(=O)N2CCCC2)CCCCC1 [1-Benzyl-3-[1-(pyrrolidine-1-carbonyl)-cyclohexyl]-urea] | < 4.40 |
| CCCCN(CC)Cc1ccc(CNC(=O)Nc2ccc(OC)cc2OC)o1 [1-[[5-[[butyl(ethyl)amino]methyl]furan-2-yl]methyl]-3-(2,4-dimethoxyphenyl)urea] | < 4.40 |
| CN(C)CCOC(=O)c1cn(Cc2ccccc2)c2ccccc12 [2-(dimethylamino)ethyl 1-(phenylmethyl)indole-3-carboxylate;hydrochloride] | < 4.40 |
| O=C(O)C1CCCCC1C(=O)NCCc1c[nH]c2ccccc12 (stereo not given) [2-[2-(1H-indol-3-yl)ethylcarbamoyl]cyclohexane-1-carboxylic acid] | < 4.40 |
| Cc1[nH]c2c(C(F)(F)F)cccc2c1CCN [2-[2-methyl-7-(trifluoromethyl)-1H-indol-3-yl]ethanamine;hydrochloride] | < 4.40 |
| COc1ccc2[nH]cc(CCN(C)C)c2c1 [3-(2-DIMETHYLAMINOETHYL)-5-METHOXYINDOLE] | < 4.40 |
| CCOC(=O)C1CCN(C(=O)Cc2c(C(=O)O)n(C)c3ccccc23)CC1 [3-{2-[4-(ethoxycarbonyl)piperidin-1-yl]-2-oxoethyl}-1-methyl-1H-indole-2-carboxylic acid] | < 4.40 |
| COC(=O)CC(=O)Cc1nc(N)nc(Nc2ccc(C)c(C)c2)n1 [4-[4-amino-6-(3,4-dimethylanilino)-1,3,5-triazin-2-yl]-3-oxobutanoic acid methyl ester] | < 4.40 |
| COc1cc(CN2CCN(c3cccc(C)c3C)CC2)cc(OC)c1O [4-[[4-(2,3-dimethylphenyl)piperazin-1-yl]methyl]-2,6-dimethoxy-phenol] | < 4.40 |
| Cc1cccc(N2CCN(C(=O)Cc3c(C(=O)O)[nH]c4ccc(Cl)cc34)CC2)c1C [5-chloranyl-3-[2-[4-(2,3-dimethylphenyl)piperazin-1-yl]-2-oxidanylidene-ethyl]-1H-indole-2-carboxylic acid] | < 4.40 |
| CC[C@@H](CO)NC(=O)[C@@H]1C=C2c3cccc4c3c(cn4C)C[C@H]2N(C)C1 [METHYSERGIDE MALEATE] | < 4.40 |
| CN1CCN2c3ccccc3Cc3ccccc3C2C1 (stereo not given) [MIANSERIN HYDROCHLORIDE] | < 4.40 |
| Cc1[nH]c2ccccc2c1C1=CCNCC1 [MLS000045807] | < 4.40 |
| NCCc1c[nH]c2ccc(F)cc12 [MLS000047815] | < 4.40 |
| C[N+]1=C2CCCCCN2C(O)(c2ccccc2)C1 (stereo not given) [MLS000048587] | < 4.40 |

| SMILES | pEC50 |
| --- | --- |
| O=S(=O)(c1cccc(Cl)c1)N1CCCC1 [MLS000063405] | < 4.40 |
| Cn1c(-c2ccccc2)cnc1SCc1nc(O)c2ccccc2n1 [MLS000077265] | < 4.40 |
| CC(=O)Nc1ccc(S(=O)(=O)N(C)c2ccc(O)cc2)cc1 [MLS000081936] | < 4.40 |
| CCN1CC=C(c2c[nH]c3ccccc23)CC1 [MLS000093713] | < 4.40 |
| CN1CC=C(c2c[nH]c3ccccc23)CC1 [MLS000120058] | < 4.40 |
| CC(CCc1ccccc1)NC(=O)CSc1nc(N)cc(N)n1 (stereo not given) [MLS000254508] | < 4.40 |
| CCc1ccc(NC(=O)Cn2c(SC)nc3ccccc32)cc1 [N-(4-ethylphenyl)-2-[2-(methylthio)-1-benzimidazolyl]acetamide] | < 4.40 |
| CNCCc1c[nH]c2ccccc12 [N-OMEGA-METHYLTRYPTAMINE] | < 4.40 |
| COc1ccc(N(CC(=O)NC2CCCC2)C(=O)Cn2nnc(-c3ccc(C)cc3)n2)cc1OC [N-[2-(cyclopentylamino)-2-oxoethyl]-N-(3,4-dimethoxyphenyl)-2-[5-(4-methylphenyl)tetrazol-2-yl]acetamide] | < 4.40 |
| CSc1nc2ccc(NC(=O)C3CCCO3)cc2s1 (stereo not given) [N-[2-(methylthio)-1,3-benzothiazol-6-yl]-2-oxolanecarboxamide] | < 4.40 |
| O=C(Nc1cccc(-c2cn3ccsc3n2)c1)c1ccccc1 [N-[3-(6-imidazo[2,1-b]thiazolyl)phenyl]benzamide] | < 4.40 |
| CCCCN(C)CCCNC(=O)Cn1c(=O)sc2ccccc21 [N-{3-[butyl(methyl)amino]propyl}-2-(2-oxo-1,3-benzothiazol-3(2H)-yl)acetamide] | < 4.40 |
| Cc1cccc(NC(=O)C2CCCN(C(=O)Nc3ccccc3)C2)c1C (stereo not given) [SMR000006943] | < 4.40 |
| CCOC(=O)C1CCN(C(c2cccnc2)c2c(NC(=O)c3ccco3)sc(C)c2C)CC1 (stereo not given) [SMR000019649] | < 4.40 |
| CCc1nn(C(C)C(=O)NCCN2CCN(c3cccc(C)c3C)CC2)c(=O)c2cc3occc3n12 (stereo not given) [SMR000029605] | < 4.40 |
| Cc1cc(C(C)(C)C)cc(C)c1CC1=NCCN1 [SMR000058526] | < 4.40 |
| Cc1cc(C(C)(C)C)c(O)c(C)c1CC1=NCCN1 [SMR000059324] | < 4.40 |
| c1ccc2sc(C3CCCNC3)nc2c1 (stereo not given) [SMR000067014] | < 4.40 |
| CCOC(=O)C1C(C)=NC(=O)NC1c1ccc(OCC(=O)Nc2ccccc2)c(OC)c1 (stereo not given) [SMR000093032] | < 4.40 |
| CC1CN(c2nnnn2-c2ccccc2)CC(C)O1 (stereo not given) [SMR000109556] | < 4.40 |
| Cc1noc(C)c1COc1ccc(C(=O)OC(C)C(=O)Nc2ccc(N3CCOCC3)cc2)cc1 (stereo not given) [[1-[(4-morpholin-4-ylphenyl)amino]-1-oxidanylidene-propan-2-yl] 4-[(3,5-dimethyl-1,2-oxazol-4-yl)methoxy]benzoate] | < 4.40 |
| O=C(COC(=O)CCC1CCCC1)Nc1ccc(Cl)cn1 [[2-[(5-chloropyridin-2-yl)amino]-2-oxoethyl] 3-cyclopentylpropanoate] | < 4.40 |
| CCOC(=O)c1oc2ccccc2c1NC(=O)c1cc(OC)cc(OC)c1 [ethyl 3-[(3,5-dimethoxybenzoyl)amino]-1-benzofuran-2-carboxylate] | < 4.40 |
| CCOC(=O)c1c(C)nc(-c2ccccc2)nc1NC(=O)CC [ethyl 4-methyl-2-phenyl-6-(propionylamino)pyrimidine-5-carboxylate] | < 4.40 |
| CCOC(=O)c1cc2ccc(OC(=O)c3ccco3)cc2oc1=O [ethyl 7-(2-furoyloxy)-2-oxo-2H-chromene-3-carboxylate] | 4.98 |
